Data taken from paper PMC10046961, “High-Throughput Screening Assay for Detecting Drug-Induced Changes in Synchronized Neuronal Oscillations and Potential Seizure Risk Based on Ca^2+ Fluorescence Measurements in Human Induced Pluripotent Stem Cell (hiPSC)-Derived Neuronal 2D and 3D Cultures” (Cells, 2023).
Like-named read-outs stand apart in the source and are kept apart here. Marks after values point to notes of the source that are not given here.

Legend:
[1] = test system: hiPSC-derived neurons co-cultured with human primary astrocytes in 3D; assay: Ca2+ transient oscillation assay (FDSS), 3D spheroids; format: cell-based; conditions: 60 min
How it was run: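 Fura-2 fluorescence was read twice for 20 min each: a baseline 10 min after 0.04% DMSO, and again 60 min after compound addition at nominal final concentration. The 3D co-cultures (1:1 hiPSC neurons from a donor and human astrocytes, 8000 each) matured 5 weeks in BrainPhys medium after a 1-week differentiation.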

[2] = ref PharmaPendium, cited from earlier work
[3] = test system: hiPSC-derived neurons co-cultured with human primary astrocytes in 2D; assay: Ca2+ transient oscillation assay (FDSS), 2D co-culture; format: cell-based; conditions: for activation at 3.7 µM / activation at 11.11 µM / activation at 33.33 µM / activation at 100 µM: Homo sapiens, 1 h, 60 min
How it was run: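 Cultures were 10,000 CW50065 hiPSC excitatory neurons plus 2500 primary human astrocytes per well. Recordings used Cal-520 dye in HBSS/HEPES/glucose at 37 °C, with a 470/540 nm read at 2 Hz. Oscillations were stabilized with 0.04% DMSO, read for 20 min, then read again 60 min after compound addition (final DMSO 0.1%).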

[4] = read-out: Area under the curve - 2D Mean
[5] = read-out: Peak amplitude - 2D Mean
[6] = read-out: Peak-to-peak interval - 2D Mean

NS(=O)(=O)c1cc2c(cc1Cl)NC(C1CC3C=CC1C3)NS2(=O)=O (stereo not shown) [Cyclothiazide]
Area under the curve - 3D Mean ([1]; 3.7 µM): 135.8 % change from baseline
Peak Number—3D Mean ([1]; 3.7 µM): 0.0 % change from baseline
Peak amplitude - 3D Mean ([1]; 3.7 µM): 126.0 % change from baseline
Peak width - 3D Mean ([1]; 3.7 µM): 0.7 % change from baseline
Peak-to-peak interval - 3D Mean ([1]; 3.7 µM): 6.7 % change from baseline
Area under the curve - 3D Mean ([1]; 11.11 µM): 187.3 % change from baseline
Peak Number—3D Mean ([1]; 11.11 µM): 21.5 % change from baseline
Peak amplitude - 3D Mean ([1]; 11.11 µM): 139.0 % change from baseline
Peak width - 3D Mean ([1]; 11.11 µM): 23.6 % change from baseline
Peak-to-peak interval - 3D Mean ([1]; 11.11 µM): −14.5 % change from baseline
Area under the curve - 3D Mean ([1]; 33.33 µM): 245.1 % change from baseline
Peak Number—3D Mean ([1]; 33.33 µM): 63.6 * % change from baseline
Peak amplitude - 3D Mean ([1]; 33.33 µM): 113.7 % change from baseline
Peak width - 3D Mean ([1]; 33.33 µM): 64.7 % change from baseline
Peak-to-peak interval - 3D Mean ([1]; 33.33 µM): −30.0 % change from baseline
Area under the curve - 3D Mean ([1]; 100 µM): 204.6 % change from baseline
Peak Number—3D Mean ([1]; 100 µM): 102.9 ** % change from baseline
Peak amplitude - 3D Mean ([1]; 100 µM): 83.6 % change from baseline
Peak width - 3D Mean ([1]; 100 µM): 80.0 % change from baseline
Peak-to-peak interval - 3D Mean ([1]; 100 µM): −49.3 % change from baseline
Free Cmax ([2]; Table 1, peak plasma concentration in men, free therapeutic Cmax): 30 µM
Free Cmax ([2]; Table 2, highest plasma concentration in humans after the therapeutic dose): 30 µM
effect on peak number / Ca2+ neuronal oscillations, in words ([3]; 2D format): significantly increased peak number
activation at 3.7 µM [3, 4]: 48%
activation at 3.7 µM ([3]; read-out: Peak Number—2D Mean): 2.7%
activation at 3.7 µM [3, 5]: 12.3%
activation at 3.7 µM ([3]; read-out: Peak width - 2D Mean): 50.8%
activation at 3.7 µM [3, 6]: 9.2%
activation at 11.11 µM [3, 4]: 18.7%
activation at 11.11 µM ([3]; read-out: Peak Number—2D Mean): 178%
activation at 11.11 µM [3, 5]: -0.5%
activation at 11.11 µM ([3]; read-out: Peak width - 2D Mean): 24.5%
activation at 11.11 µM [3, 6]: -53.3%
activation at 33.33 µM [3, 4]: -9.3%
activation at 33.33 µM ([3]; read-out: Peak Number—2D Mean): -25.2%
activation at 33.33 µM [3, 5]: -24%
activation at 33.33 µM ([3]; read-out: Peak width - 2D Mean): 208%
activation at 33.33 µM [3, 6]: 0.3%
activation at 100 µM [3, 4]: -53.8%
activation at 100 µM ([3]; read-out: Peak Number—2D Mean): -82%
activation at 100 µM [3, 5]: -72.8%
activation at 100 µM ([3]; read-out: Peak width - 2D Mean): -17.3%
activation at 100 µM [3, 6]: -70.3%
